The text below walks through data of patent US20230257385A1, “SALT AND SOLID FORMS OF TABERNANTHALOG” (priority 2021, published 2023).

A short description of series [1]: Qualitative solubility screen of Tabernanthalog sorbate salt (Example 10, Experiment 2). Conditions: Tabernanthalog sorbate salt (input Form A), one solvent per sample; for Assignment (wet pellet XRPD): product crystallised in solubility screen, centrifuged wet pellet; for Assignment (dry pellet XRPD): same pellets dried under reduced pressure. The format is physicochemical. How it is done:
The qualitative solubility screen was carried out to determine the range of solvents incorporated into future suspension equilibration panels. Products that crystallised were centrifuged and analysed as wet pellet by XRPD, dried under reduced pressure and re-analysed by XRPD, with selected samples further analysed by TGA and ^1H NMR spectroscopy.
If insoluble at 5 vol, the solvent quantity was increased to 10 vol, 15 vol and 20 vol of the respective solvent. The suspensions that occurred upon cooling down were centrifuged and the solvent wet pellets were analysed by XRPD.
The insoluble suspensions were additionally worked up for XRPD analysis. The resultant powder patterns were subsequently cross-referenced against the input supplied material.

Series [2] in a line: Suspension equilibration of sorbate salt at 20 and 40° C. (Example 10, Experiments 3, 4, 9). In kind it is physicochemical. Particulars: one solvent per sample; for Observations (t = 1 d @ 20° C.) / Observations (t = 10 d @ 20° C.) / Observations (t = 1 d @ 40° C.) / Observations (t = 10 d @ 40° C.): sorbate salt Form A in 5 vol solvent; for Observations (t = 0 @ 20° C.) / Observations (t = 0 @ 40° C.): sorbate salt Form A, ca. 50 mg in 5 vol solvent; for XRPD (IPC, 6 d, wet): moist pellet after 6 d; for XRPD (post oven dried): pellet after oven drying. How it is done: The purpose of this panel is to determine if Form A evolves into a supra-ordinate form. The companion panel at 40° C. set-point is in place to detect enantiotropic behaviour via different relative proportions in different solvents. XRPD data of the moist pellets obtained from the suspension equilibration study at 20° C.
The relevant solvent (5 vol) was added to the appropriate vial and the suspensions were stirred and warmed to the predetermined temperature with stirring. […]

Setting [3] is: suspension equilibration at 20° C.
[4] abbreviates: suspension equilibration at 40° C.

On to `CC=CC=CC(=O)O.COc1ccc2c3c([nH]c2c1)CCN(C)CC3.O`, for which, in series [1], the “Assignment (wet pellet XRPD)” value is on record as “Pattern #1” and the “Assignment (dry pellet XRPD)” value was “Converted into Form A”.

Consider `COc1ccc2c3c([nH]c2c1)CCN(C)CC3.O=C(O)/C=C/C(=O)O` [Experiment 2-Sample C1], for which, in series [1], the “Assignment (wet pellet XRPD)” value is reported as “Form A” and the “Assignment (dry pellet XRPD)” value is listed as “Form A”.

As to `COc1ccc2c3c([nH]c2c1)CCN(C)CC3` [Experiment 2-Sample D1], the “Assignment (wet pellet XRPD)” value in series [1] is reported as “Form A”; in series [1] (listed as Experiment 2-Sample E1), “Form A + split reflections 5.90º,”. The “Assignment (dry pellet XRPD)” value in series [1] is “Form A”.

As for `CC=CC=CC(=O)O.COc1ccc2c3c([nH]c2c1)CCN(C)CC3` [Experiment 2-Sample G1], in series [1], the “Assignment (wet pellet XRPD)” value is listed as “Form A” and the “Assignment (dry pellet XRPD)” value is “Form A”.

`CC=CC=CC(=O)O.COc1ccc2c3c([nH]c2c1)CCN(C)CC3` [Experiment 2-Sample H1]: in series [1], the “Assignment (wet pellet XRPD)” value is given as “Form A + new shoulders” and the “Assignment (dry pellet XRPD)” value is given as “Form A + new shoulders”.

In the case of `CC=CC=CC(=O)O.COc1ccc2c3c([nH]c2c1)CCN(C)CC3` [Experiment 2-Sample I1], the “Assignment (wet pellet XRPD)” value in series [1] was “Oiled”.

As to `CC=CC=CC(=O)O.COc1ccc2c3c([nH]c2c1)CCN(C)CC3` [Experiment 2-Sample J1], in series [1], the “Assignment (wet pellet XRPD)” value is “Form A, some shift of d-spacings” and the “Assignment (dry pellet XRPD)” value is given as “Form A”.

Turning to `CC=CC=CC(=O)O.COc1ccc2c3c([nH]c2c1)CCN(C)CC3` [Experiment 2-Sample L1], in series [1], the “Assignment (wet pellet XRPD)” value is recorded as “Form A” and the “Assignment (dry pellet XRPD)” value is reported as “Form A”.

As to `CC=CC=CC(=O)O.COc1ccc2c3c([nH]c2c1)CCN(C)CC3` [Experiment 2-Sample M1], in series [1], the “Assignment (wet pellet XRPD)” value is on record as “Form A + shoulder 22.89º 2” and the “Assignment (dry pellet XRPD)” value is reported as “Form A + new shoulder”.

Regarding `C/C=C/C=C/C(=O)O.COc1ccc2c3c([nH]c2c1)CCN(C)CC3` [Experiment 2-Sample N1], in series [1], the “Assignment (wet pellet XRPD)” value was “Form A + split reflections” and the “Assignment (dry pellet XRPD)” value is “Form A”.

For `CC=CC=CC(=O)O.COc1ccc2c3c([nH]c2c1)CCN(C)CC3` [Experiment 2-Sample O1], in series [1], the “Assignment (wet pellet XRPD)” value was “Form A + split reflections” and the “Assignment (dry pellet XRPD)” value was “Form A”.

As to `CC=CC=CC(=O)O.COc1ccc2c3c([nH]c2c1)CCN(C)CC3` [Experiment 2-Sample P1], in series [1], the “Assignment (wet pellet XRPD)” value was “Form A” and the “Assignment (dry pellet XRPD)” value is listed as “Form A”.

As for `CC=CC=CC(=O)O.COc1ccc2c3c([nH]c2c1)CCN(C)CC3` [Experiment 2-Sample Q1], in series [1], the “Assignment (wet pellet XRPD)” value is on record as “Form A + new shoulders” and the “Assignment (dry pellet XRPD)” value was “Form A”.

With `CC=CC=CC(=O)O.COc1ccc2c3c([nH]c2c1)CCN(C)CC3` [Experiment 2-Sample R1], in series [1], the “Assignment (wet pellet XRPD)” value is reported as “Form A” and the “Assignment (dry pellet XRPD)” value is reported as “Form A”.

Turning to `CC=CC=CC(=O)O.COc1ccc2c3c([nH]c2c1)CCN(C)CC3` [Experiment 3-Sample B], in series [2], the “Observations (t = 1 d @ 20° C.)” value is listed as “Suspension”, the “Observations (t = 10 d @ 20° C.)” value is recorded as “Suspension” and the “Observations (t = 0 @ 20° C.)” value is “Suspension”. Besides, in series [2] (setting [3]), the “XRPD (IPC, 6 d, wet)” value was “Form A” and the “XRPD (post oven dried)” value was “Form A”.

In the case of `C/C=C/C=C/C(=O)O.COc1ccc2c3c([nH]c2c1)CCN(C)CC3` [Experiment 3-Sample C], in series [2], the “Observations (t = 1 d @ 20° C.)” value is reported as “Suspension”, the “Observations (t = 10 d @ 20° C.)” value was “Suspension” and the “Observations (t = 0 @ 20° C.)” value was “Suspension”. For the same compound, in series [2] (setting [3]), the “XRPD (IPC, 6 d, wet)” value is recorded as “Form A” and the “XRPD (post oven dried)” value was “Form A”.

For `CC=CC=CC(=O)O.COc1ccc2c3c([nH]c2c1)CCN(C)CC3` [Experiment 3-Sample F], in series [2], the “Observations (t = 1 d @ 20° C.)” value was “Suspension”, the “Observations (t = 10 d @ 20° C.)” value is recorded as “Suspension” and the “Observations (t = 0 @ 20° C.)” value is reported as “Suspension”. In addition, in series [2] (setting [3]), the “XRPD (IPC, 6 d, wet)” value was “Form A” and the “XRPD (post oven dried)” value is reported as “Form A”.

Take `CC=CC=CC(=O)O.COc1ccc2c3c([nH]c2c1)CCN(C)CC3` [Experiment 3-Sample L]: in series [2], the “Observations (t = 1 d @ 20° C.)” value is “Suspension”, the “Observations (t = 10 d @ 20° C.)” value was “Suspension” and the “Observations (t = 0 @ 20° C.)” value is “Suspension”. In series [2] (setting [3]), the “XRPD (IPC, 6 d, wet)” value is “Form A” and the “XRPD (post oven dried)” value was “Form A”.

For the compound `CC=CC=CC(=O)O.COc1ccc2c3c([nH]c2c1)CCN(C)CC3` [Experiment 3-Sample M], in series [2], the “Observations (t = 1 d @ 20° C.)” value is reported as “Suspension”, the “Observations (t = 10 d @ 20° C.)” value was “Suspension” and the “Observations (t = 0 @ 20° C.)” value is “Suspension”. In series [2] (setting [3]), the “XRPD (IPC, 6 d, wet)” value is given as “Form A” and the “XRPD (post oven dried)” value is recorded as “Form A”.

For the compound `CC=CC=CC(=O)O.COc1ccc2c3c([nH]c2c1)CCN(C)CC3` [Experiment 3-Sample N], in series [2], the “Observations (t = 1 d @ 20° C.)” value is “Suspension”, the “Observations (t = 10 d @ 20° C.)” value is listed as “Suspension” and the “Observations (t = 0 @ 20° C.)” value is reported as “Suspension”. Besides, in series [2] (setting [3]), the “XRPD (IPC, 6 d, wet)” value is “Form A” and the “XRPD (post oven dried)” value is listed as “Form A”.

As for `CC=CC=CC(=O)O.COc1ccc2c3c([nH]c2c1)CCN(C)CC3` [Experiment 3-Sample O], in series [2], the “Observations (t = 1 d @ 20° C.)” value was “Suspension”, the “Observations (t = 10 d @ 20° C.)” value is given as “Suspension” and the “Observations (t = 0 @ 20° C.)” value is reported as “Suspension”. Further, in series [2] (setting [3]), the “XRPD (IPC, 6 d, wet)” value is listed as “Form A” and the “XRPD (post oven dried)” value is “Form A”.

`CC=CC=CC(=O)O.COc1ccc2c3c([nH]c2c1)CCN(C)CC3` [Experiment 3-Sample R]: in series [2], the “Observations (t = 1 d @ 20° C.)” value is “Suspension”, the “Observations (t = 10 d @ 20° C.)” value was “Suspension” and the “Observations (t = 0 @ 20° C.)” value is “Suspension”. In addition, in series [2] (setting [3]), the “XRPD (IPC, 6 d, wet)” value was “Pattern #2” and the “XRPD (post oven dried)” value is on record as “Form A”.

On to `CC=CC=CC(=O)O.COc1ccc2c3c([nH]c2c1)CCN(C)CC3` [Experiment 3-Sample S], for which, in series [2], the “Observations (t = 1 d @ 20° C.)” value is listed as “Solution” and the “Observations (t = 0 @ 20° C.)” value was “Solution”.

As for `CC=CC=CC(=O)O.COc1ccc2c3c([nH]c2c1)CCN(C)CC3` [Experiment 3-Sample T], in series [2], the “Observations (t = 1 d @ 20° C.)” value is “Solution”, the “Observations (t = 10 d @ 20° C.)” value was “Solution” and the “Observations (t = 0 @ 20° C.)” value is recorded as “Solution”.

With `C/C=C/C=C/C(=O)O.COc1ccc2c3c([nH]c2c1)CCN(C)CC3` [Experiment 4-Sample A], in series [2], the “Observations (t = 1 d @ 40° C.)” value was “Suspension”, the “Observations (t = 10 d @ 40° C.)” value was “Suspension” and the “Observations (t = 0 @ 40° C.)” value is “Suspension”. For the same compound, in series [2] (setting [4]), the “XRPD (IPC, 6 d, wet)” value was “Form A” and the “XRPD (post oven dried)” value is given as “Form A”.

`C/C=C/C=C/C(=O)O.COc1ccc2c3c([nH]c2c1)CCN(C)CC3` [Experiment 4-Sample B]: in series [2], the “Observations (t = 1 d @ 40° C.)” value is on record as “Suspension”, the “Observations (t = 10 d @ 40° C.)” value was “Suspension” and the “Observations (t = 0 @ 40° C.)” value was “Suspension”. Further, in series [2] (setting [4]), the “XRPD (IPC, 6 d, wet)” value is given as “Form A” and the “XRPD (post oven dried)” value is “Form A”.

Consider `C/C=C/C=C/C(=O)O.COc1ccc2c3c([nH]c2c1)CCN(C)CC3` [Experiment 4-Sample C], for which, in series [2], the “Observations (t = 1 d @ 40° C.)” value is on record as “Suspension”, the “Observations (t = 10 d @ 40° C.)” value was “Suspension” and the “Observations (t = 0 @ 40° C.)” value is recorded as “Suspension”. For the same compound, in series [2] (setting [4]), the “XRPD (IPC, 6 d, wet)” value is listed as “Form A” and the “XRPD (post oven dried)” value is reported as “Form A”.

Turning to `CC=CC=CC(=O)O.COc1ccc2c3c([nH]c2c1)CCN(C)CC3` [Experiment 4-Sample D], in series [2], the “Observations (t = 1 d @ 40° C.)” value is listed as “Suspension”, the “Observations (t = 10 d @ 40° C.)” value was “Suspension” and the “Observations (t = 0 @ 40° C.)” value is recorded as “Suspension”. In addition, in series [2] (setting [4]), the “XRPD (IPC, 6 d, wet)” value is given as “Form A” and the “XRPD (post oven dried)” value was “Form A”.

As to `C/C=C/C=C/C(=O)O.COc1ccc2c3c([nH]c2c1)CCN(C)CC3` [Experiment 4-Sample E], in series [2], the “Observations (t = 1 d @ 40° C.)” value is given as “Solution” and the “Observations (t = 0 @ 40° C.)” value is reported as “Partial”. The “XRPD (IPC, 6 d, wet)” value in series [2] (setting [4]) is given as “Pattern #5”.

With `CC=CC=CC(=O)O.COc1ccc2c3c([nH]c2c1)CCN(C)CC3` [Experiment 4-Sample F], in series [2], the “Observations (t = 1 d @ 40° C.)” value is recorded as “Partial” and the “Observations (t = 0 @ 40° C.)” value was “Partial”. In series [2] (setting [4]), the “XRPD (IPC, 6 d, wet)” value is given as “Form A” and the “XRPD (post oven dried)” value is listed as “Form A”.
